Assays:
HK‐I = target: T1, HK‐I (Homo sapiens, UniProt P19367); experiment: HK activity assay with purified recombinant HK‐I; assay type: biochemical; settings: HK‐I 13 µg/ml pre‐incubated with peptide; 1 mM ATP, G6PDH‐coupled, absorbance at 340 nm (Fig. S3B)
T1 construct: His; made in house; host or cells: Escherichia coli BL21
T1 sequence (P19367 1-917): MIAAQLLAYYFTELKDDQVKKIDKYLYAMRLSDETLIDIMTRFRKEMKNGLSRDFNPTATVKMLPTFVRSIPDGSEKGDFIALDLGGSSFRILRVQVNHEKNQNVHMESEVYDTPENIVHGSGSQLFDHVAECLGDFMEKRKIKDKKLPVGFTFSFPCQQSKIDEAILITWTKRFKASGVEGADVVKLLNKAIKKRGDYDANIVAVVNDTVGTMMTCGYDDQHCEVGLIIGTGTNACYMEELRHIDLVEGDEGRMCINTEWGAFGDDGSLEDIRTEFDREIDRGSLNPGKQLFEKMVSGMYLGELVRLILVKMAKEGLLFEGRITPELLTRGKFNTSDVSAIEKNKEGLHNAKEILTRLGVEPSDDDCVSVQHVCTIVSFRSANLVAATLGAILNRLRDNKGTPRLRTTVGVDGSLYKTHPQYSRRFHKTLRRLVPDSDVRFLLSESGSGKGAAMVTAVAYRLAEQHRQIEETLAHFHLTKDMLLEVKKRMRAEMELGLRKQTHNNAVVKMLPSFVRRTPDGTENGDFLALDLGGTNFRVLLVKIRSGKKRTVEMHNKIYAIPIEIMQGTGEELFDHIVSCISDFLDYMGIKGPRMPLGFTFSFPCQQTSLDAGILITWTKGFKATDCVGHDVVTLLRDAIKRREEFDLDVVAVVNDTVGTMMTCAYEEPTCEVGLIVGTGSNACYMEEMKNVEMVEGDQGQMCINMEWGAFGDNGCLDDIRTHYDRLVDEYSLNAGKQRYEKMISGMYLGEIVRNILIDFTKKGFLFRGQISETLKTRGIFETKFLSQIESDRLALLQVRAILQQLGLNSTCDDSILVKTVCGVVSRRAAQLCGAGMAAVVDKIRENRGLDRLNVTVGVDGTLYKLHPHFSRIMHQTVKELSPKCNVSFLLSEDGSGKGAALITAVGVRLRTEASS
Method: Human HK‐I and HK‐II were cloned into plasmid pET‐His DNA and expressed in Escherichia coli BL21 upon IPTG induction. HK was purified from lysed cells using a HiTrap nickel column (GE Healthcare). Following dialysis, the imidazole‐eluted protein was further purified using a Blue HiTrap column (GE Healthcare). HK was eluted using 10 mM glucose, 20 mM Tris/HCl (pH 8.5), 20% glycerol, and 1.5 mM glucose‐6‐phosphate. Fractions were analyzed by SDS/PAGE and tested for HK activity. The purified active fractions were combined and stored in aliquots at −80 °C.
Change in absorbance at 340 nm (NADH production) was spectrophotometrically measured following addition of 1 mM ATP and 0.05 unit·mL^−1 glucose‐6‐phosphate dehydrogenase.
Purified HK-I (13 µg/ml) was pre-incubated with the indicated concentrations of Tf-D-LP4 (●) or R-Tf-D-LP4 (○) and assayed for HK activity as described in Materials and Methods. Change in absorbance at 340 nm (NADH production) was spectrophotometrically measured following addition of 1 mM ATP, and 0.05 unit/ml glucose-6-phosphate dehydrogenase. C. Tf-D-LP4 and R-Tf-D-LP4 solubility. The peptides were dissolved to a final concentration of 5 mM in 5% DMSO and diluted to 1.1 mM in HBSS. Peptide absorbance in the supernatant was measured at 280 nm following centrifugation at 12,000g before and after 75 min incubation at 24 °C. […] Cell death was analyzed using PI and FACS analysis. […]

[1] = test system: A549, MDA‐MB‐231 and U‐87MG xenografts; experiment: TUNEL assay on xenograft tumor sections; assay type: in vivo, mouse; settings: TUNEL staining of paraffin sections; no TUNEL‐positive cells in control HBSS‐TTs (Fig. 7A–C)
Method: U‐87MG cells (3 × 10^6/mouse), A549 cells (5 × 10^6/mouse), or MDA‐MB‐231 cells (3 × 10^6/mouse) were inoculated subcutaneously (s.c.) into the hind leg flanks of athymic 8‐week‐old male nude mice (Envigo, Huntingdon, UK). Tumor size was measured using a digital caliper and volume was calculated, and when reached 50–100 mm^3 for each tumor type, mice were randomly divided into two groups (five mice per group). […] The xenografts were injected (two points, 20 μL per tumor) every two days. Beginning on the day of inoculation, mouse weight and tumor volume were monitored twice a week. Experiments were terminated after 14, 29, or 20 days for U‐87MG‐, MDA‐MB‐231‐, or A549‐based tumors, respectively. The mice were sacrificed and tumors were excised. Half of each tumor was fixed in 4% buffered formaldehyde, paraffin‐embedded, and processed for IHC, while the second half was frozen in liquid nitrogen for immunoblotting and qPCR analyses. These experimental protocols were approved by the Institutional Animal Care and Use Committee of Ben‐Gurion University.
Paraffin‐embedded‐fixed tumor sections were processed for a TUNEL assay using the DeadEnd Fluorometric TUNEL system according to the manufacturer's instructions. […]

HeLa cells = experiment: Cellular ATP levels, luciferase‐based assay (CellTiter‐Glo); assay type: cell-based, human; settings: 3 h, percentage of control, mean ± SE (n = 3) (Fig. 4F)
Method: Cellular ATP levels were estimated using a luciferase‐based assay (CellTiter‐Glo; Promega). […] ATP levels were assayed according to the manufacturer's protocol, and luminescence was recorded using an Infinite M1000 plate reader (Tecan, Männedorf, Switzerland).

- inhibition of purified HK‐I activity (HK‐I): inhibits HK-I activity
SMILES: CC[C@H](C)[C@H](NC(=O)[C@H](Cc1ccc(O)cc1)NC(=O)[C@@H]1CCCN1C(=O)[C@H](CCCNC(=N)N)NC(=O)[C@H](Cc1c[nH]cn1)NC(=O)[C@@H](CO)NC(=O)[C@@H](Cc1c[nH]c2ccccc12)NC(=O)[C@H](NC(=O)[C@@H](Cc1c[nH]c2ccccc12)NC(=O)[C@@H](CCC(=O)O)NC(=O)[C@@H](CCCCN)NC(=O)[C@@H](CCCCN)NC(=O)[C@@H](CC(C)C)NC(=O)[C@@H](CCC(=O)O)NC(=O)[C@H](NC(=O)[C@@H](C)NC(=O)[C@H](NC(=O)[C@@H](CC(N)=O)NC(=O)[C@@H](CC(C)C)NC(=O)[C@@H](C)NC(=O)[C@@H](Cc1c[nH]c2ccccc12)NC(=O)[C@H](NC(=O)[C@@H](C)NC(=O)CNC(=O)[C@@H](CC(N)=O)NC(=O)[C@@H](CO)NC(=O)[C@@H](CC(N)=O)NC(=O)[C@@H](CCCCN)NC(=O)[C@@H](Cc1c[nH]c2ccccc12)NC(=O)[C@H](NC(=O)[C@@H](Cc1c[nH]c2ccccc12)NC(=O)[C@H](N)CCCCN)[C@H](C)O)[C@H](C)O)C(C)C)[C@H](C)O)[C@H](C)O)C(=O)N[C@@H](C)C(=O)N[C@@H](Cc1c[nH]cn1)C(=O)O [R‐Tf‐D‐LP4]
- TUNEL‐positive cells in treated tumors [1]: the majority of the cells were TUNEL‐positive
- decrease of cellular ATP levels (HeLa cells): about 40%

Reference: article PMC6026870, “Selective induction of cancer cell death by VDAC1‐based peptides and their potential use in cancer therapy” (Molecular Oncology, 2018)
